Measured values reported in patent US9216173B2, “2-Pyridyl carboxamide-containing spleen tyrosine kinase (SYK) inhibitors” (Merck Sharp & Dohme Corp., priority 2011, dated 2015).
Like-named read-outs stand apart in the source and are kept apart here.

Biological target: T1, recombinant human GST-SYK (Homo sapiens, UniProt P43405)
T1 construct: purchased Carna Biosciences 08-176
Experiment: Homogeneous Time-Resolved Fluorescence (HTRF) assay for the recombinant human Syk enzyme
Assay type: biochemical
Details: GST-hSYK 5 pM, ATP 25 μM, 10-dose titration 10 μM to 0.508 nM
Method: Homogeneous Time-Resolved Fluorescence (HTRF) Assay for the Recombinant Human Syk Enzyme
A recombinant GST-hSYK fusion protein was used to measure potency of compounds to inhibit human Syk activity. […] Final volume of the reaction was 10 μL. Phosphorylation of the peptide was allowed to proceed for 45 minutes at room temperature. To quench the reaction and detect the phosphorylated product, 2 nM of a Europium-anti-phosphotyrosine antibody (Perkin Elmer #AD0161) and 70 nM SA-APC (Perkin-Elmer #CR130-100) were added together in 15 mM Tris pH 7.5, 40 mM EDTA, 0.01% tween 20. Final volume of the quenching solution was 10 μL. The resulting HTRF signal was measured after 30 minutes on an EnVision (Perkin-Elmer) reader using a time-resolved fluorescence protocol.

[1] = read-out: rhSYK Activity (IC50 rating)

Compound	IC50 [1]	IC50 (read-out: IC50)
Cc1cc(C)nc(Nc2cc(NCC3(N)CCOCC3)cnc2C(N)=O)c1 [Example 1.34, 5-{[(4-aminotetrahydro-2H-pyran-4-yl)methyl]amino}-3-[(4,6-dimethylpyridin-2-yl)amino]pyridine-2-carboxamide]	10 to 100 nM	
Cc1cc(C)nc(Nc2cc(NCC3(N)CCOC3)cnc2C(N)=O)c1 (centres unmarked) [Example 1.35, 5-{[(3-aminotetrahydrofuran-3-yl)methyl]amino}-3-[(4,6-dimethylpyridin-2-yl)amino]pyridine-2-carboxamide]	10 to 100 nM	
Cc1cc(C)nc(Nc2cc(NC(C)C(N)=O)cnc2C(N)=O)c1 (centres unmarked) [Example 1.39, 5-[(2-amino-1-methyl-2-oxoethyl)amino]-3-[(4,6-dimethylpyridin-2-yl)amino]pyridine-2-carboxamide]	10 to 100 nM	
Cc1cc(C)nc(Nc2cc(N[C@@H](CC(C)C)C(N)=O)cnc2C(N)=O)c1 [Example 1.40, N^2-{6-carbamoyl-5-[(4,6-dimethylpyridin-2-yl)amino]pyridin-3-yl}leucinamide]	< 10 nM	
Cc1cc(C)nc(Nc2cc(NC(C(N)=O)C(C)C)cnc2C(N)=O)c1 (centres unmarked) [Example 1.41, 5-[(1-carbamoyl-2-methylpropyl)amino]-3-[(4,6-dimethylpyridin-2-yl)amino]pyridine-2-carboxamide]	10 to 100 nM	12 nM
Cc1cc(C)nc(Nc2cc(N[C@@H](CC(C)C)C(N)=O)cnc2C(N)=O)c1 [Example 1.45, N^2-{6-carbamoyl-5-[(4,6-dimethylpyridin-2-yl)amino]pyridin-3-yl}- -leucinamide]	< 10 nM	
Cc1cc(C)nc(Nc2cc(N[C@@H](CC(C)C)C(N)=O)cnc2C(N)=O)c1 [Example 1.46, N^2-{6-carbamoyl-5-[(4,6-dimethylpyridin-2-yl)amino]pyridin-3-yl}- -leucinamide]		7.8 nM
Cc1cc(C)nc(Nc2cc(N[C@H]3[C@@H](N)CCCC3(F)F)cnc2C(N)=O)c1 [Example 1.47, 5-{[(1S,6S)-6-amino-2,2-difluorocyclohexyl]amino}-3-[(4,6-dimethylpyridin-2-yl)amino]pyridine-2-carboxamide]	< 10 nM	
NC(=O)c1ncc(N[C@@H]2CCCC[C@@H]2N)cc1Nc1cccc(C2CC2)n1 [Example 1.53, 5-{[(1R,2S)-2-aminocyclohexyl]amino}-3-[(6-cyclopropylpyridin-2-yl)amino]pyridine-2-carboxamide]	< 10 nM	
Cc1cc(C)n2nc(Nc3cc(N[C@@H]4CCCC[C@@H]4N)cnc3C(N)=O)cc2n1 [Example 1.55, 5-{[(1R,2S)-2-aminocyclohexyl]amino}-3-[(5,7-dimethylpyrazolo[1,5-a]pyrimidin-2-yl)amino]pyridine-2-carboxamide]	< 10 nM	
CCn1cnc(Nc2cc(N[C@@H]3CCCC[C@@H]3N)cnc2C(N)=O)n1 [Example 1.56, 5-{[(1R,2S)-2-aminocyclohexyl]amino}-3-[(1-ethyl-1H-1,2,4-triazol-3-yl)amino]pyridine-2-carboxamide]	100 to 1000 nM	
NC(=O)c1ncc(N[C@@H]2CCCC[C@@H]2N)cc1Nc1cccc(N2CCOCC2)n1 [Example 1.57, 5-{[(1R,2S)-2-aminocyclohexyl]amino}-3-[(6-morpholin-4-ylpyridin-2-yl)amino]pyridine-2-carboxamide]	< 10 nM	
NCCNc1cnc(C(N)=O)c(Nc2cccc(-n3nccn3)n2)c1 [Example 1.58, 5-[(2-aminoethyl)amino]-3-{[6-(2H-1,2,3-triazol-2-yl)pyridin-2-yl]amino}pyridine-2-carboxamide]	< 10 nM	
Cc1cc(C(=O)N(C)C)cc(Nc2cc(N[C@@H]3CCCC[C@@H]3N)cnc2C(N)=O)n1 [Example 1.59, 5-{[(1R,2S)-2-aminocyclohexyl]amino}-3-{[4-(dimethylcarbamoyl)-6-methylpyridin-2-yl]amino}pyridine-2-carboxamide]	10 to 100 nM	
NC(=O)c1ncc(N[C@@H]2CCCC[C@@H]2N)cc1Nc1cccc(CN2CCOCC2)n1 [Example 1.60, 5-{[(1R,2S)-2-aminocyclohexyl]amino}-3-{[6-(morpholin-4-ylmethyl)pyridin-2-yl]amino}pyridine-2-carboxamide]	100 to 1000 nM	
CN1CCN(Cc2cccc(Nc3cc(N[C@@H]4CCCC[C@@H]4N)cnc3C(N)=O)n2)CC1 [Example 1.61, 5-{[(1R,2S)-2-aminocyclohexyl]amino}-3-({6-[(4-methylpiperazin-1-yl)methyl]pyridin-2-yl}amino)pyridine-2-carboxamide]	100 to 1000 nM	
Cn1ncc(Nc2cc(N[C@@H]3CCCC[C@@H]3N)cnc2C(N)=O)n1 [Example 1.62, 5-{[(1R,2S)-2-aminocyclohexyl]amino}-3-[(2-methyl-2H-1,2,3-triazol-4-yl)amino]pyridine-2-carboxamide]	10 to 100 nM	
Cc1nc(Nc2cc(N[C@@H]3CCCC[C@@H]3N)cnc2C(N)=O)ccc1-n1nccn1 [Example 1.67, 5-{[(1R,2S)-2-aminocyclohexyl]amino}-3-{[6-methyl-5-(2H-1,2,3-triazol-2-yl)pyridin-2-yl]amino}pyridine-2-carboxamide]	< 10 nM	
Cn1ncc2c(Nc3cc(N[C@@H]4CCCC[C@@H]4N)cnc3C(N)=O)nc(-c3ccccc3)nc21 [Example 1.69, 5-{[(1R,2S)-2-aminocyclohexyl]amino}-3-[(1-methyl-6-phenyl-1H-pyrazolo[3,4-d]pyrimidin-4-yl)amino]pyridine-2-carboxamide]	< 10 nM	
CCOCC(N)CNc1cnc(C(N)=O)c(Nc2cc(C)cc(C)n2)c1 (centres unmarked) [Example 1.70, 5-[(2-amino-3-ethoxypropyl)amino]-3-[(4,6-dimethylpyridin-2-yl)amino]pyridine-2-carboxamide]	< 10 nM	
NC(=O)c1ncc(N[C@@H]2CCCC[C@@H]2N)cc1Nc1cc(Cl)cc(Cl)n1 [Example 1.73, 5-{[(1R,2S)-2-aminocyclohexyl]amino}-3-[(4,6-dichloropyridin-2-yl)amino]pyridine-2-carboxamide]	< 10 nM	

Next, values leading:

IC50 [1]	IC50 (read-out: IC50)	Compound
< 10 nM		Cc1cc(Cl)nc(Nc2cc(N[C@@H]3CCCC[C@@H]3N)cnc2C(N)=O)c1 [Example 1.38, 5-{[(1R,2S)-2-aminocyclohexyl]amino}-3-[(6-chloro-4-methylpyridin-2-yl)amino]pyridine-2-carboxamide]
< 10 nM		NC(=O)c1ncc(N[C@@H]2CCCC[C@@H]2N)cc1Nc1cccc(-c2ccccn2)n1 [Example 1.42, 5-{[(1R,2S)-2-aminocyclohexyl]amino}-3-(2,2′-bipyridin-6-ylamino)pyridine-2-carboxamide]
10 to 100 nM		NC(=O)c1ncc(N[C@@H]2CCCC[C@@H]2N)cc1Nc1ncn(-c2ccccc2)n1 [Example 1.44, 5-{[(1R,2S)-2-aminocyclohexyl]amino}-3-[(1-phenyl-1H-1,2,4-triazol-3-yl)amino]pyridine-2-carboxamide]
< 10 nM		NC(=O)c1ncc(N[C@@H]2CCCC[C@@H]2N)cc1Nc1cccc(F)n1 [Example 1.48, 5-{[(1R,2S)-2-aminocyclohexyl]amino}-3-[(6-fluoropyridin-2-yl)amino]pyridine-2-carboxamide]
10 to 100 nM		CCn1ccc(Nc2cc(N[C@@H]3CCCC[C@@H]3N)cnc2C(N)=O)n1 [Example 1.49, 5-{[(1R,2S)-2-aminocyclohexyl]amino}-3-[(1-ethyl-1H-pyrazol-3-yl)amino]pyridine-2-carboxamide]
10 to 100 nM		NC(=O)c1ncc(N[C@@H]2CCCC[C@@H]2N)cc1Nc1ccn(Cc2ccccc2)n1 [Example 1.50, 5-{[(1R,2S)-2-aminocyclohexyl]amino}-3-[(1-benzyl-1H-pyrazol-3-yl)amino]pyridine-2-carboxamide]
< 10 nM		NC(=O)c1ncc(N[C@@H]2CCCC[C@@H]2N)cc1Nc1cnn(-c2ccccc2)n1 [Example 1.51, 5-{[(1R,2S)-2-aminocyclohexyl]amino}-3-[(2-phenyl-2H-1,2,3-triazol-4-yl)amino]pyridine-2-carboxamide]
< 10 nM		CC(C)c1cccc(Nc2cc(N[C@@H]3CCCC[C@@H]3N)cnc2C(N)=O)n1 [Example 1.54, 5-{[(1R,2S)-2-aminocyclohexyl]amino}-3-{[6-(1-methylethyl)pyridin-2-yl]amino}pyridine-2-carboxamide]
< 10 nM		NC(=O)c1ncc(N[C@@H]2CCCC[C@@H]2N)cc1Nc1ccn(-c2ccc(Cl)cc2)n1 [Example 1.63, 5-{[(1R,2S)-2-aminocyclohexyl]amino}-3-{[1-(4-chlorophenyl)-1H-pyrazol-3-yl]amino}pyridine-2-carboxamide]
< 10 nM		Cc1ccc(-n2ccc(Nc3cc(N[C@@H]4CCCC[C@@H]4N)cnc3C(N)=O)n2)cc1 [Example 1.64, 5-{[(1R,2S)-2-aminocyclohexyl]amino}-3-{[1-(4-methylphenyl)-1H-pyrazol-3-yl]amino}pyridine-2-carboxamide]
< 10 nM		NC(=O)c1ncc(N[C@@H]2CCCC[C@@H]2N)cc1Nc1ccn(-c2ccc(F)cc2)n1 [Example 1.65, 5-{[(1R,2S)-2-aminocyclohexyl]amino}-3-{[1-(4-fluorophenyl)-1H-pyrazol-3-yl]amino}pyridine-2-carboxamide]
< 10 nM		Cc1ccc(-n2ccc(Nc3cc(N[C@@H]4CCCC[C@@H]4N)cnc3C(N)=O)n2)cc1C [Example 1.66, 5-{[(1R,2S)-2-aminocyclohexyl]amino}-3-{[1-(3,4-dimethylphenyl)-1H-pyrazol-3-yl]amino}pyridine-2-carboxamide]
< 10 nM		COc1ccc(-n2ccc(Nc3cc(N[C@@H]4CCCC[C@@H]4N)cnc3C(N)=O)n2)cc1 [Example 1.72, 5-{[(1R,2S)-2-aminocyclohexyl]amino}-3-{[1-(4-methoxyphenyl)-1H-pyrazol-3-yl]amino}pyridine-2-carboxamide]
